Literature values in patent US20040224039A1, “Compositions and methods for the treatment of diseases and disorder associated with oxidative damage” (priority 2003, published 2004).

Conditions: following the administration of 500 mg aspirin

- plasma level: 130 µM
Compound: CC(=O)Oc1ccccc1C(=O)O [aspirin, acetylsalicylic acid]
